# Values quoted from earlier work, collected in patent US5922690A (priority 1997, dated 1999).
# System: rabbits
# Settings: in vivo
Substance,"Bleeding from a standardized incision in a rabbit's ear, heparin versus DS",Multiple of the antithrombotic dose injected without increasing bleeding (rabbit)
heparin,much greater,
dermatan sulfate [DS],,up to forty times
